Reference: patent US8106073B2, “Quinoline derivatives 057” (AstraZeneca AB, priority 2007, dated 2012)
Where two headings read alike, the source gives them in different places.

Assays:
[1] = target: T1, P2X7 receptor (Homo sapiens, UniProt Q99572); experiment: P2X7 assay (bbATP-induced ethidium bromide fluorescence in THP-1 cells); format: cell-based
T1 construct: 200 μl of a suspension of THP-1 cells; endogenous in cells; host or cells: THP-1 cells
T1 sequence (Q99572 1-595): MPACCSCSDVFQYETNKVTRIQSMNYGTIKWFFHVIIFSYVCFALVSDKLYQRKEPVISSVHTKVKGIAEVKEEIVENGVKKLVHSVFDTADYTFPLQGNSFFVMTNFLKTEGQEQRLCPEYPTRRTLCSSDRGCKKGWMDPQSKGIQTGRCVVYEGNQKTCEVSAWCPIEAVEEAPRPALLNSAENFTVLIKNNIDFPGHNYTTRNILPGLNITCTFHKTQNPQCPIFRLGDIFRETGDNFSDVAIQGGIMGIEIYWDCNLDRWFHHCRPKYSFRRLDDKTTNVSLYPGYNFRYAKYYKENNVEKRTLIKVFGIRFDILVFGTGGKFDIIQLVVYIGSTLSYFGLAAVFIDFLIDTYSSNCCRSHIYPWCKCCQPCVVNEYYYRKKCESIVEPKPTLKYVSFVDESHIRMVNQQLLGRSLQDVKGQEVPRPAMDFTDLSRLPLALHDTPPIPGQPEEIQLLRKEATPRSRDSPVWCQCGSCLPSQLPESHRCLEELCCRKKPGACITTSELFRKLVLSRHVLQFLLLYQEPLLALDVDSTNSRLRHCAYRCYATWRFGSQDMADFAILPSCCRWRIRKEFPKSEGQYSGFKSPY
From the text: Certain compounds such as benzoylbenzoyl adenosine triphosphate (bbATP) are known to be agonists of the P2X7 receptor, effecting the formation of pores in the plasma membrane (Drug Development Research (1996), 37(3), p. 126). Consequently, when the receptor is activated using bbATP in the presence of ethidium bromide (a fluorescent DNA probe), an increase in the fluorescence of intracellular DNA-bound ethidium bromide is observed. The increase in fluorescence can be used as a measure of P2X7 receptor activation and therefore to quantify the effect of a compound on the P2X7 receptor.
In this manner, the compound of the invention was tested for antagonist activity at the P2X7 receptor. Thus, the test was performed in 96-well flat bottomed microtitre plates, the wells being filled with 250 μl of test solution comprising 200 μl of a suspension of THP-1 cells (2.5×10^6 cells/ml) containing 10^−4M ethidium bromide, 25 μl of a high potassium buffer solution containing 10^−5M bbATP, and 25 μl of the high potassium buffer solution containing concentrations of test compound typically from 30 μM-0.001 μM. The plate was covered with a plastic sheet and incubated at 37° C. for one hour. The plate was then read in a Perkin-Elmer fluorescent plate reader, excitation 520 nm, emission 595 nm, slit widths: Ex 15 nm, Em 20 nm. […]

[2] = Bioavailability - Rat PK; format: in vivo, male Sprague Dawley rats; conditions: male, Sprague Dawley, plasma, oral 5 mg/kg vs IV 3 mg/kg
Experimental: Pharmacokinetic parameters and concepts are used in DMPK to describe the fate of a compound in the body. The distribution and excretion of a compound are reflected in the plasma concentration-time profile. By appropriate dosing, sampling and analysis key as parameters (clearance, volume, half-life, bioavailability etc.) can be determined.
Test compounds were typically dosed intravenously to the right lateral tail vein of male Sprague Dawley rats at a dose level of 3 mg/kg (1 ml/kg) in DMA:water (40:60 v/v). Rats were dosed orally at a dose level of 5 mg/kg (2 ml/kg) in 0.5% hydroxypropylmethylcellulose (HPMC, w/v)/0.1% Tween 80 (v/v) in water). […]
To determine the plasma levels of test compound, 50 μl of methanol was added to 50 μl of each of the test samples, whilst 40 μl of methanol was added to the 50 μl aliquots of control plasma containing 10 μl spikes of authentic standard used to create a calibration line and QCs. […] The resultant supernatants were analysed by HPLC-MSMS after an appropriate, selective and sensitive method had been created by optimizing both cone voltage and collision energy.
Pharmacokinetic parameters were derived from concentration-time using non-compartmental analysis in WinNonLin®. Bioavailability was calculated using the following equation F=AUCPO*DoseIV/AUCIV*DosePO.

[3] = test system: primary rat hepatocytes; experiment: In vitro phospholipidosis protocol (DHPE-TRITC accumulation); format: cell-based, Han Wistar rats
Experimental: Assessment of a compounds potential to induce phospholipidosis was determined by an in vitro fluorescent assay which reports the accumulation of phospholipids in primary rat hepatocytes. Hepatocytes were isolated from Han Wistar rats by a 2-stage collagenase digest method. The hepatocytes were then plated on collagen coated 96-well plates in William's E medium. The cells were left to adhere for 1 hour then the media was replaced with a solution of 250 μg.ml^−1 collagen in Hepatozyme cell culture medium.
Cells were then cultured for 48 hours with the medium being changed at 24 hours. At 48 hours post isolation the medium was changed to Hepatozyme supplemented with the fluorescent phospholipid N-(6-tetramethylrhodaminethiocarbamoyl)-1,2-dihexadecanoyl-sn-glycero-3-phosphoethanolamine (DHPE-TRITC) (5 μg.ml^−1). At this time, test compounds were added to the hepatocytes at a range of concentrations in a serial dilution with a final concentration of 0.4% dimethylsulfoxide (used as solvent for test compounds).
The cells were incubated for a further 24 hours and then fixed by addition of a phosphate buffered saline (PBS) solution containing the nuclear stain Hoechst 33342 (final concentration 2 μM) and paraformaldehyde solution (final concentration 4%). The plates were kept at room temperature for 30 minutes then washed three times in PBS solution.
Images of the hepatocytes were then acquired using an automated microscope platform (GE In Cell Analyser 3000). Image analysis algorithms were then used to assess cell viability and the accumulation of the DHPE-TRITC label within viable hepatocytes. The quantified accumulation observed with test compounds was then normalised to a range of 0, representing the accumulation observed in cells exposed to vehicle only, and 1, representing cells exposed to 10 μM amiodarone. The maximum accumulation across the dose response of the test compound, where cell viability is >50%, is reported, as is the dose at which this maximum was observed. The lowest dose that caused >50% cell toxicity is also reported. […]

[4] = target: T2, hERG (Homo sapiens, UniProt Q12809); experiment: hERG binding protocol (radioligand competition, HEK cell membranes expressing hERG); conditions: human, HEK cell membranes expressing hERG, pH 7.4; highest concentration tested
T2 construct: expressed in transfected cells; host or cells: HEK (human embryonic kidney) cells, membranes
Experimental: (§1) The hERG assay was performed according to the procedure described in WO2005/037052. The affinity (pIC50) of compounds for the ion channel subunit encoded by the human ether-a-go-go-related gene (hERG) gene was determined by competition binding of radioligand 3,7-Bis[2-(4-nitro[3,5-^3H]phenyl)ethyl]-3,7-diazabicyclo[3.3.1]nonane to HEK (human embryonic kidney) cell membranes expressing hERG, in a filter wash format.
(§2) Membranes were incubated for 3 hours at room temperature with serial dilutions of the test compounds, radioligand 3,7-Bis[2-(4-nitro[3, 5-3H]phenyl)ethyl]-3,7-diazabicyclo[3.3.1]nonane at 1 nM final concentration, and assay buffer (10 mM HEPES, 130 mM NaCl, 5 mM KCl, 1 mM EGTA, 0.8 mM MgCl2, pH 7.4). The assay was conducted in a final volume of 200 μL, in the presence of 1% (v/v) dimethyl sulphoxide. Non-specific binding was determined by measuring the binding of 3,7-Bis[2-(4-nitro[3,5-^3H]phenyl)ethyl]-3,7-diazabicyclo[3.3.1]nonane in the presence of 10 μM astemizole. During this incubation GF/B filter plates were immersed in coating solution 0.3% (v/v) Polyethylenimine and 0.2% (w/v) BSA). Following incubation assay plates were harvested onto precoated GF/B filter plates using a Tomtec harvester.
(§3) The pIC50, defined as the negative logarithm of the concentration of compound required for 50% reduction in 3,7-Bis[2-(4-nitro[3,5-^3H]phenyl)ethyl]-3,7-diazabicyclo[3.3.1]nonane binding, was determined. A ‘less than’ FIGURE indicates <50% inhibition at the quoted concentration, this being the highest concentration tested.

[5] = target: T3, ion channel subunit encoded by the human ether-a-go-go-related gene (hERG) (Homo sapiens, UniProt Q12809); experiment: as above; conditions: for P2X7:hERG Ratio: ratio of P2X7:hERG affinity
T3 construct: expressed in transfected cells; host or cells: HEK (human embryonic kidney) cells, membranes
Experimental: as §1, §2, §3

[6] = Plasma protein binding (equilibrium dialysis); format: in vitro ADME; conditions: pH 7.4; human plasma, 37° C., 5 μM compound; read-out: human plasma protein binding (% bound) (converted)
Experimental: The extent of plasma protein binding was determined via equilibrium dialysis of a compound between human plasma and aqueous buffer at 37° C., and determination of the concentrations of compound in the plasma and buffer by HPLC-MS/MS.
Dialysis cells (molecular weight cut-off 5000) were prepared by rinsing with water followed by soaking in the dialysis buffer for a minimum of 1 hour. The dialysis buffer was isotonic buffered saline pH 7.4. Stock solutions of compound in dimethylsulfoxide were prepared at a concentration of 0.5 mM.
The stock DMSO solution of compound was added to the plasma at a ratio of 10 μl of DMSO to each ml of plasma. This gave a 1% DMSO in plasma solution with each compound at a concentration of 5 μM.
Dialysis cells were then prepared and one half of the cell filled with 750 μl of dialysis buffer and the other half of the cell with 750 μl of plasma solution of compound. […]
The samples were then analysed using HPLC-MS/MS. […]
The concentration of compound in the samples were determined using MassLynx version 4.1 software (produced by Waters/Micromass) that automatically calculated a calibration curve and interpolated the concentration of compound in the analytes. Plasma protein binding was determined from the measured concentration as the percentage of compound bound in plasma (% bound) using the following equation;

T3 sequence (Q12809 whole entry): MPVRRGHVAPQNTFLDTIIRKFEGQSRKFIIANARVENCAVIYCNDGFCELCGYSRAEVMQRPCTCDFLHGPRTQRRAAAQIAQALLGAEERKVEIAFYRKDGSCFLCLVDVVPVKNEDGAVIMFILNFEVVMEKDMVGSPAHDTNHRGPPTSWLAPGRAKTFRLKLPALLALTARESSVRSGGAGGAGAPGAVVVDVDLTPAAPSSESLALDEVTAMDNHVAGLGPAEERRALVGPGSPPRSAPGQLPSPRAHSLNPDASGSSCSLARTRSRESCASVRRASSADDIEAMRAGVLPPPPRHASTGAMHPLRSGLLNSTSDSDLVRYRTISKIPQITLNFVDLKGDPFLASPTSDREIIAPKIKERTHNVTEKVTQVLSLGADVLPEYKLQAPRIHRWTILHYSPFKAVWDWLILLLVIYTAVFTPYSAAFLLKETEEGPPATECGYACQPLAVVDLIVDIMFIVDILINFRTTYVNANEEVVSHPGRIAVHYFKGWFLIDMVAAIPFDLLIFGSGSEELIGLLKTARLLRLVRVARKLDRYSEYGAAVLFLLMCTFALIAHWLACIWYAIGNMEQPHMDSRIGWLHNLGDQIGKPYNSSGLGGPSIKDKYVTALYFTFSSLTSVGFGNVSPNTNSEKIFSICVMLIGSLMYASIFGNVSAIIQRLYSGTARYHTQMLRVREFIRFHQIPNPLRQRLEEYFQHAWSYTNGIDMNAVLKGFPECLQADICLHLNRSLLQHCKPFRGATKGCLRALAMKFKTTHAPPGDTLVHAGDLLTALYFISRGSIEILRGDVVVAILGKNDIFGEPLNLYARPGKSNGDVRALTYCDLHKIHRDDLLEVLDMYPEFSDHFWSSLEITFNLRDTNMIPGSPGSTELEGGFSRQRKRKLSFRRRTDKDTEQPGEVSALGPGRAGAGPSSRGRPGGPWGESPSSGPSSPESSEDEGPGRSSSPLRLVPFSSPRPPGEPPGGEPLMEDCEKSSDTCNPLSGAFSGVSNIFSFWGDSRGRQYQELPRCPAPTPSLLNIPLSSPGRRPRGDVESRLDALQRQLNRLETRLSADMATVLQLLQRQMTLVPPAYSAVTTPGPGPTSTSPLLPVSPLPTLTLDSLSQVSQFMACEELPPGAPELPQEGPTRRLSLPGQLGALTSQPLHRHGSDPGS
T2 sequence (Q12809 whole entry): as above

IC50 ([1]; 10^-5M bbATP, antagonist activity, read-out: P2X7 pIC50 (converted)): 3.98 nM
IC50 ([1]; bbATP, read-out: P2X7 IC50): ≤ 5 nM
melting point: 138 to 140 °C
bioavailability [2]: 14%
fraction unbound at 5 µM [6]: 0.3
Compound: O=C(NCC1(O)CCCCCC1)c1c(Cl)ccc2nc(N3CC[C@H](NCCO)C3)ccc12 [Example 1, 6-Chloro-N-[(1-hydroxycycloheptyl)methyl]-2-{(3S)-3-[(2-hydroxyethyl)amino]-pyrrolidin-1-yl}quinoline-5-carboxamide]
maximum accumulation concentration ([3]; dose at which maximum accumulation was observed): 71 µM
minimum toxic concentration ([3]; lowest dose that caused >50% cell toxicity): 198 µM
maximum accumulation (phospholipidosis) ([3]; relative to 10 μM amiodarone control (=1), vehicle = 0, cell viability >50%): 0.9
inhibition at 3 h [4]: < 50%
IC50 ([5]; radioligand competition binding): > 100000 nM
P2X7:hERG Ratio [5]: >20,000
P2X7:hERG Ratio ([5]; listed as compound according to the present invention): > 20,000
